Columns and labels:
[1] = tested on: potassium oxonate -induced hyperuricemic rats; assay: Serum uric acid level in potassium oxonate-induced hyperuricemic rats after 3-day administration; assay type: in vivo, Sprague Dawley (SD) rats; conditions: for Uric acid: serum, mean ± SD, n=6; for Effect on serum uric acid level after modeling, compared with the model group at the same time point: 2 mg/kg gavage, hyperuricemic rats, result in words
Excerpt: Compound 30 and 32 were light yellow powders and triturated with 0.5% CMC-Na just prior to use to prepare suspensions having a corresponding concentration for gavage.
Febuxostat, purchased from Sigma, was triturated with 0.5% CMC-Na just prior to use to prepare a suspension having a corresponding concentration for gavage.
Sprague Dawley (SD) rats, SPF grade, 30, male, weighing 230-250 g, purchased from Shanghai SLAC Laboratory Animal Co., Ltd., permission number: SCXK (hu) 2022-0004, quality certification number: 20220004017238.
Uric acid assay kit (phosphotungstic acid reduction method), batch number: 20230224, purchased from NanJing Jiancheng Bioengineering Institute; Potassium oxonate, article number: 00164, batch number: T6GKM-TA, purchased from Tokyo Chemical Industry Co., Ltd., Japan (TCI); carboxymethyl cellulose sodium (CMC-Na), batch number: 20170810, chemically pure, purchased from Sinopharm chemical reagent Co., Ltd.
30 male SD rats weighed approximately 220-240 g after one week of adaptation. They were randomly divided into 5 groups according to the body weight, with 6 rats in each group, namely: (1) normal group (0.5% CMC-Na), (2) model group (0.5% CMC-Na), (3) Febuxostat, 2 mg/kg, (4) compound 30, 2 mg/kg and (5) compound 32, 2 mg/kg. The drugs in each group were prepared into a corresponding concentration suspension, and the administration volume was 0.5 mL/100 g.
After the rats in each group were purchased and adapted to feeding, they were fasted for 12 h, and intraperitoneally injected with potassium oxonate at a dose of 300 mg/kg to establish a model. 0.5 h after modeling, each test drug group was subjected to gavage administration once. The drug was administered continuously for 3 days. On day 3, blood samples were collected from the retro-orbital venous plexus before and 1, 3 and 5 h after injection of potassium oxonate. The samples were centrifuged at 3500 rpm for 10 min, and 30 μL of serum was collected to measure the uric acid level at each time point.
The measurement data of each test were expressed as (mean)±(standard deviation). The comparison between groups used ANOVA-Dunnett T test to examine the significance. P<0.05 was used as the significance index, and P<0.01 was used as the extremely significant index.

[2] = In vivo pharmacokinetic experiments in SD rats (oral and intravenous); conditions: male, Sprague-Dawley (SD), rat, plasma
Experimental: Preparation of compound stock solution: An appropriate amount of compound solid powder was be weighed and added in a certain amount of DMSO, and vortex ultrasound to obtain a 10 mg/mL stock solution.
(§1) Preparation of test compound for gavage: respectively taking an appropriate amount of the compound stock solution, adding a certain amount of Solutol HS15 solution, vortexing for 1 minute, then adding a certain amount of physiological saline, and fully mixing to obtain a 1 mg/mL solution.
as §1, with “for intravenous injection:” for “for gavage:”, “mixing until uniform, so as” for “mixing”, “a 0.5” for “a 1”
SD rats, male, SPF grade, 6-8 weeks old, purchased from JH Laboratory Animal Co. LTD. Permission number: SCXK (SH) 2022-0009, certification number: 20220009004139.
The experimental animals were fasted overnight before gavage administration, and were given food 4 hours after administration, with free access to water. Each test compound was divided into two groups, namely, intravenous administration group and oral administration group.
Blood samples (150 μL/sample) were collected from the jugular vein of SD rats before administration and at 5 min (only intravenous administration group), 15 min, 30 min, 1 h, 2 h, 4 h, 8 h and 24 h after administration, respectively. The samples were placed in centrifuge tubes containing anticoagulant sodium heparin and centrifuged at 4° C., 2000 g for 5 minutes to separate plasma. The plasma samples were analyzed by LC/MS/MS to detect the concentration of each test compound.
Non-compartmental model-related parameters were calculated by WinNonlin® Professional software.

[3] = 0 h (before potassium oxonate injection on day 3), 2 mg/kg gavage once daily for 3 days
[4] = 1 h after potassium oxonate 300 mg/kg i.p. on day 3, 2 mg/kg gavage for 3 days
[5] = 3 h after potassium oxonate 300 mg/kg i.p. on day 3, 2 mg/kg gavage for 3 days
[6] = 5 h after potassium oxonate 300 mg/kg i.p. on day 3, 2 mg/kg gavage for 3 days
[7] = Intravenous injection administration - 1 mg/kg
[8] = po, Gavage administration - 10 mg/kg

Row | Structure (SMILES) | Uric acid [1, 3] | Effect on serum uric acid level after modeling, compared with the model group at the same time point [1] | Uric acid [1, 4] | Uric acid [1, 5] | Uric acid [1, 6] | AUC(0-inf) [2, 7] | Cmax [2, 7] | MRT inf [2, 7] | Tmax [2, 7] | half-life [2, 7] | AUC(0-inf) [2, 8] | Cmax [2, 8] | MRT inf [2, 8] | Tmax [2, 8] | half-life [2, 8]
1 | Cc1nc(-c2ccc(OCC(C)C)c(C#N)c2)sc1C(=O)O [Febuxostat, reference compound] | 39.2 ± 6.2 µmol/L | significantly reduce | 34.4 ± 7.1 µmol/L | 31.2 ± 7.6 µmol/L | 24.7 ± 4.7 µmol/L | – | – | – | – | – | – | – | – | – | –
2 | CCOC(=O)OC(C)OC(=O)c1cnn(-c2ccc3c(c2)c(C#N)cn3C(C)C)c1 (stereo not shown) [compound 11, {1-[(ethoxycarbonyl)oxy]}ethyl 1-(3-cyano-1-isopropyl-1H-indol-5-yl)-1H-pyrazole-4-carboxylate] | – | – | – | – | – | 1100 ng·h/mL | 1860 ng/mL | 3.69 h | 0.083 h | 7.72 h | 12400 ng·h/mL | 4670 ng/mL | 4.22 h | 0.25 h | 3.44 h
3 | CC(C)n1cc(C#N)c2cc(-n3cc(C(=O)OCCCCO[N+](=O)[O-])cn3)ccc21 [compound 30, [4-(nitrooxy)]butyl 1-(3-cyano-1-isopropyl-1H-indol-5-yl)-1H-pyrazole-4-carboxylate] | 45.0 ± 8.4 µmol/L | significantly reduce | 70.0 ± 14.8 µmol/L | 94.2 ± 22.7 µmol/L | 72.2 ± 11.4 µmol/L | – | – | – | – | – | – | – | – | – | –
4 | CC(C)n1cc(C#N)c2cc(-n3cc(C(=O)Oc4cccc(CO[N+](=O)[O-])c4)cn3)ccc21 [compound 32, phenyl [3-(nitrooxy)methyl] 1-(3-cyano-1-isopropyl-1H-indol-5-yl)-1H-pyrazole-4-carboxylate] | 49.1 ± 6.7 µmol/L | significantly reduce | 68.9 ± 15.8 µmol/L | 82.2 ± 23.3 µmol/L | 65.8 ± 13.6 µmol/L | – | – | – | – | – | – | – | – | – | –

Source: US20250289809A1, “COMPOUNDS USEFUL FOR GOUT” (ATOM BIOSCIENCE AMERICA CORPORATION, priority 2022, published 2025)
